Experimental data published in publication PMC10857328, “Utilization of Biopolymer-Based Lutein Emulsion as an Effective Delivery System to Improve Lutein Bioavailability in Neonatal Rats” (Nutrients, 2024).
Where two headings read alike, the source gives them in different places. Marks after values point to notes of the source that are not given here.

Legend:
[1] = Daily dosing study 2 (maternal standard chow diet containing lutein): serum and tissue lutein concentrations; type: in vivo, neonatal Sprague-Dawley rats; conditions: 2 mg/kg daily oral P5-P18
Procedure: Serum and tissue lutein concentration was determined using an ultra-performance liquid chromatography (UPLC) system (Waters, Milford, MA, USA) equipped with a photo-diode array detector (PDA)/MS/MS, according to our well-established methods with slight modification. As for the serum, 100 μL of the sample was incubated with 2 mL of 100% ethanol at room temperature for an hour for lipid extraction. For the tissues, ~0.1 g of the sample was weighed, homogenized, and incubated with 2 mL of 100% ethanol at room temperature for an hour. An amount of 1 mL of 5% (w/v) potassium hydroxide was added to the sample and incubated in a water bath at 60 °C for 45 min for saponification. Upon saponification, samples were allowed to cool for about 15 min, and then an addition of 4 mL of hexane containing 0.1% butylated hydroxytoluene (w/v) and 2 mL of deionized water was added. The mixture was vortexed for 20 s and centrifuged at 1600 rpm at 25 °C for 15 min. The upper layer was collected following centrifugation and dried under nitrogen at 37 °C. The dried sample was then rinsed twice with hexane, dried, and reconstituted with 100 µL of acetonitrile-methanol. The reconstituted sample was centrifuged for 2 min to remove any possible precipitation. For UPLC analysis, 10 µL of the sample was injected into the Waters Acquity UPLC HSS T3 column. Solvent A was acetonitrile: methanol (50:50, v/v), and solvent B was 100% isopropanol. The mobile phase was made up of solvent A and solvent B in a volume ratio of 95:5 (v/v). The flow rate was set as 0.5 mL/min, and the column temperature was maintained at 35 °C. The detection wavelength was set at 446 nm. Retinyl acetate (Sigma-Aldrich, St. Louis, MO, USA) was used as the internal standard. To mimic the human dietary intake of lutein, daily dosing study 2 was conducted (Figure 1C). In this study, maternal rats consumed a standard rodent chow diet containing lutein from ingredients (i.e., ground corn) during pregnancy and lactation (Figure S2). The study design was similar to that of daily dosing study 1, except that a negative control group, in which rat pups were given olive oil from P5 to P18, was included in this study. Serum and tissue lutein concentrations were analyzed using the methods described in Section 2.3.2.

[2] = Daily dosing study 1 (maternal purified diet with no lutein): serum and tissue lutein concentrations; type: in vivo, neonatal Sprague-Dawley rats; conditions: for Lutein concentration, serum: 2 mg/kg daily oral P5-P18, sampled P19
Procedure: Serum and tissue lutein concentration was determined using an ultra-performance liquid chromatography (UPLC) system (Waters, Milford, MA, USA) equipped with a photo-diode array detector (PDA)/MS/MS, according to our well-established methods with slight modification. As for the serum, 100 μL of the sample was incubated with 2 mL of 100% ethanol at room temperature for an hour for lipid extraction. For the tissues, ~0.1 g of the sample was weighed, homogenized, and incubated with 2 mL of 100% ethanol at room temperature for an hour. An amount of 1 mL of 5% (w/v) potassium hydroxide was added to the sample and incubated in a water bath at 60 °C for 45 min for saponification. Upon saponification, samples were allowed to cool for about 15 min, and then an addition of 4 mL of hexane containing 0.1% butylated hydroxytoluene (w/v) and 2 mL of deionized water was added. The mixture was vortexed for 20 s and centrifuged at 1600 rpm at 25 °C for 15 min. The upper layer was collected following centrifugation and dried under nitrogen at 37 °C. The dried sample was then rinsed twice with hexane, dried, and reconstituted with 100 µL of acetonitrile-methanol. The reconstituted sample was centrifuged for 2 min to remove any possible precipitation. For UPLC analysis, 10 µL of the sample was injected into the Waters Acquity UPLC HSS T3 column. Solvent A was acetonitrile: methanol (50:50, v/v), and solvent B was 100% isopropanol. The mobile phase was made up of solvent A and solvent B in a volume ratio of 95:5 (v/v). The flow rate was set as 0.5 mL/min, and the column temperature was maintained at 35 °C. The detection wavelength was set at 446 nm. Retinyl acetate (Sigma-Aldrich, St. Louis, MO, USA) was used as the internal standard. To determine the effects of daily consumption of CTA-stabilized lutein emulsion on tissue lutein status, two daily dosing studies were conducted. The procedures were approved by the Institutional Animal Care and Use Committee of the University of Alabama (Number: 21-02-4373, 4 February 2021). For daily dosing study 1 (Figure 1B), on P5, rat pups (n = 8–9/group) were randomly selected from the litters and received an oral dose of either free lutein (i.e., lutein ester dissolved in olive oil) or lutein emulsion both containing 2 mg/kg body weight of lutein. […] Dosing was repeated daily until P18. The dosage was determined from previous research in both rodent and human newborns and was also established as an Acceptable Daily Intake for lutein by the Joint Food and Agricultural Organization/World Health Organization. On P19, pups were euthanized. Rats are known to wean between P19 and P21 [47]. Blood from vena cava, liver, spleen, brain, eye, kidney, lung, white adipose tissue (WAT), and brown adipose tissue (BAT) were collected. Blood samples were centrifuged to obtain serum. Serum and collected tissues were frozen at −80 °C until analysis. Serum and tissue lutein concentrations were analyzed using the methods described in Section 2.3.2.

[3] = encapsulation technique Nanoparticles, Sprague-Dawley rats, cited from earlier work
[4] = maternal standard chow diet containing lutein
[5] = maternal standard chow diet containing lutein, listed as free lutein
[6] = 2 mg/kg daily oral P5-P18, maternal purified diet with no lutein
[7] = 2 mg/kg daily oral P5-P18, maternal purified diet with no lutein, listed as free lutein
[8] = daily dosing study 1 vs study 2

- Lutein concentration, BAT [1, 4]: 0.026 ± 0.014 ^a nmol/g
- Lutein concentration, WAT [1, 4]: 0.34 ± 0.23 ^a nmol/g
- Lutein concentration, brain [1, 4]: 0.06 ± 0.04 ^ab nmol/g
- Lutein concentration, eye [1, 4]: 0.01 ± 0.003 ^c nmol/g
- Lutein concentration, kidney [1, 4]: 0.12 ± 0.03 ^b nmol/g
- Lutein concentration, liver [1, 4]: 1.23 ± 0.38 ^bc nmol/g
- Lutein concentration, lung [1, 4]: 0.043 ± 0.007 ^a nmol/g
- Lutein concentration, serum [1, 4]: 17.6 ± 4.39 nM
- Lutein concentration, spleen [1, 4]: 0.58 ± 0.29 ^b nmol/g
- Lutein concentration, serum ([1]; maternal standard chow diet containing lutein (Table 4)): 17.61 ± 4.39 ^b nmol/L
- Lutein concentration, BAT [1, 5]: 0.026 ± 0.014 nmol/g
- Lutein concentration, WAT [1, 5]: 0.34 ± 0.23 nmol/g
- Lutein concentration, brain [1, 5]: 0.06 ± 0.04 nmol/g
- Lutein concentration, eye [1, 5]: 0.01 ± 0.003 nmol/g
- Lutein concentration, kidney [1, 5]: 0.12 ± 0.03 nmol/g
- Lutein concentration, liver [1, 5]: 1.23 ± 0.38 nmol/g
- Lutein concentration, lung [1, 5]: 0.043 ± 0.007 nmol/g
- Lutein concentration, serum ([2]; maternal purified diet with no lutein): 112.42 ± 34.60 ^a nmol/L
- Lutein concentration, serum ([2]; maternal purified diet with no lutein, listed as free lutein): 112.42 ± 34.60 nmol/L
- Lutein concentration, BAT [2, 6]: 0.02 ± 0.002 ^a nmol/g
- Lutein concentration, WAT [2, 6]: 0.08 ± 0.04 ^a nmol/g
- Lutein concentration, brain [2, 6]: 0.04 ± 0.01 ^b nmol/g
- Lutein concentration, eye [2, 6]: 0.04 ± 0.01 ^a nmol/g
- Lutein concentration, kidney [2, 6]: 0.12± 0.04 ^b nmol/g
- Lutein concentration, liver [2, 6]: 2.52 ± 1.29 ^b nmol/g
- Lutein concentration, lung [2, 6]: 0.06 ± 0.01 ^a nmol/g
- Lutein concentration, spleen [2, 6]: 0.66 ± 0.18 ^a nmol/g
- Lutein concentration, BAT [2, 7]: 0.02 ± 0.002 nmol/g
- Lutein concentration, brain [2, 7]: 0.04 ± 0.01 nmol/g
- Lutein concentration, eye [2, 7]: 0.02 ± 0.007 nmol/g
- Lutein concentration, kidney [2, 7]: 0.12 ± 0.04 nmol/g
- Lutein concentration, liver [2, 7]: 2.52 ± 1.29 nmol/g
- Lutein concentration, lung [2, 7]: 0.06 ± 0.01 nmol/g
- Lutein concentration, spleen [2, 7]: 0.66 ± 0.18 nmol/g
- Fold higher eye lutein concentration, no-lutein maternal diet vs diet containing lutein [2, 8]: 2.00 fold
- Fold higher liver lutein concentration, no-lutein maternal diet vs diet containing lutein [2, 8]: 2.04 fold
- Fold higher serum lutein concentration, no-lutein maternal diet vs diet containing lutein [2, 8]: 6.38 fold
Substance: Lutein ester [Free Lutein]
- Tmax (serum) ([3]; ref Chang et al. (2018) [59]): 3 h
- Tmax (serum) ([3]; ref Liu et al. (2017) [37]): 2 h
- Tmax (serum) ([3]; ref Wu et al. (2019) [54]): 2 h
- Tmax (serum) ([3]; ref Zhang et al. (2015) [58]): 6 ± 2.2 h
